Assay results published in paper PMC4257618, “Structures of Plasmodium vivax serine hydroxymethyltransferase: implications for ligand-binding specificity and functional control” (Acta Crystallographica Section D: Biological Crystallography, 2014).
Values belong to the compound of their own block, whether it stands above or below them.

How the values were obtained:
[1] = target: T1, serine hydroxymethyltransferase (PvSHMT) (Plasmodium vivax, UniProt A5K8L9); assay: X-ray crystal structure at […] Å; also […] inhibition at […] in SHMT–MTHFD coupled assay; assay type: binding; details: read-out: % inhibition at 1.55 mM
T1 construct: gene PVX_100730
T1 sequence (A5K8L9 1-442): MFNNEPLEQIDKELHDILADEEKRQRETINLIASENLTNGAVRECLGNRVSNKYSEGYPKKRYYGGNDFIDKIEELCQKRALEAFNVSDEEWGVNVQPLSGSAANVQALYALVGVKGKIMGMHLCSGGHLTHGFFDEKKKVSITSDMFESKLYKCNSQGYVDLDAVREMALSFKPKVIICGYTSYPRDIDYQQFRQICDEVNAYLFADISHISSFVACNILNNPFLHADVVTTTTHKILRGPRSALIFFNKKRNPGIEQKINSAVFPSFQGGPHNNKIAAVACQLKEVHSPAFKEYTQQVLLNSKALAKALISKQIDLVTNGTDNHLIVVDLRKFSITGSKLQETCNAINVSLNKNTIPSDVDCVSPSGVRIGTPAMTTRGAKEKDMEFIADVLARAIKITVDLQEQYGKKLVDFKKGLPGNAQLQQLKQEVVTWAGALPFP

[2] = target: T1, serine hydroxymethyltransferase (PvSHMT); assay: SHMT–MTHFD coupled enzyme assay (L-Ser–THF); quinonoid formation with D-Ser by absorbance; assay type: biochemical
[3] = target: T1, serine hydroxymethyltransferase (PvSHMT); assay: X-ray crystal structure at […] Å; assay type: binding
[4] = target: T1, serine hydroxymethyltransferase (PvSHMT); assay: X-ray crystal structure at […] Å; assay type: binding; remark: listed apart in the source

inhibition at 1550 µM [1]: 30%
SMILES: Nc1nc(=O)c2c([nH]1)NC[C@@H](CNc1ccc(C(=O)N[C@@H](CCC(=O)O)C(=O)O)cc1)N2C=O (racemic) [(6R)-5FTHF, (6R)-5-formyltetrahydrofolate]

Ki [2]: 210 µM
SMILES: Nc1nc(=O)c2c([nH]1)NC[C@H](CNc1ccc(C(=O)N[C@@H](CCC(=O)O)C(=O)O)cc1)N2C=O [(6S)-5FTHF, (6S)-5-formyltetrahydrofolate]

SMILES: N[C@@H](CO)C(=O)O [L-Ser, L-serine]
X-ray crystal structure at 2.5 Å [3]: 4pfn for the PLP–L-Ser external aldimine

SMILES: Cc1ncc(COP(=O)(O)O)c(C=O)c1O [PLP, pyridoxal-5′-phosphate]
X-ray crystal structure at 2.3 Å [4]: 4pff for the PLP internal aldimine
